Measurements from PubChem BioAssay AID328 (DTP/NCI, 2004).
Where “and” joins values, the source holds several entries; their conditions need not be identical. Equal entries are not always repeated. Inconclusive results and toxic doses are left out. How the source made its calls: active means survival T/C of 150% or more; inactive means T/C below 125% in these data.

System: BDF1 mice, P388 leukemia ip, median survival T/C
Assay: NCI In Vivo Anticancer Drug Screen. Data for tumor model P388 Leukemia (intraperitoneal) in B6D2F1 (BDF1) mice
Conditions: endpoint: median survival time, higher = longer survival
Outline: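 Mice carrying the transplantable tumour receive compound or vehicle. Survival is followed in each arm, and the treated measure is divided by the vehicle measure.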

[1] = dose: 100.0 mg/kg/injection, schedule: Q04DX003 (ip), vehicle: saline with Tween-80
[2] = dose: 200.0 mg/kg/injection, schedule: Q04DX003 (ip), vehicle: saline with Tween-80
[3] = dose: 400.0 mg/kg/injection, schedule: Q04DX003 (ip), vehicle: saline with Tween-80
[4] = dose: 100.0 mg/kg/injection, schedule: Q01DX009 (ip), vehicle: saline with Tween-80
[5] = dose: 200.0 mg/kg/injection, schedule: Q01DX009 (ip), vehicle: saline with Tween-80
[6] = dose: 50.0 mg/kg/injection, schedule: Q01DX009 (ip), vehicle: saline with Tween-80

Measured: T/C

COc1cccc2c1C(=O)c1c(O)c3c(c(O)c1C2=O)CC(O)(C(C)=O)CC3OC1CC(N)C(O)C(C)O1 (stereo unspecified)
active: dose: 0.25 mg/kg/injection, schedule: Q01DX009 (ip), vehicle: water 160 % of control | dose: 0.25 mg/kg/injection, schedule: Q01DX010 (ip), vehicle: saline 165 % of control and 175 % of control | dose: 0.5 mg/kg/injection, schedule: Q01DX009 (ip), vehicle: water 173 % of control | dose: 0.5 mg/kg/injection, schedule: Q01DX010 (ip), vehicle: saline 180 % of control and 195 % of control | dose: 1.0 mg/kg/injection, schedule: Q01DX009 (ip), vehicle: water 182 % of control | dose: 1.0 mg/kg/injection, schedule: Q01DX010 (ip), vehicle: saline 230 % of control and 200 % of control | dose: 2.0 mg/kg/injection, schedule: Q01DX009 (ip), vehicle: water 210 % of control | dose: 2.0 mg/kg/injection, schedule: Q01DX010 (ip), vehicle: saline 155 % of control and 190 % of control and 220 % of control | dose: 4.0 mg/kg/injection, schedule: Q01DX009 (ip), vehicle: water 157 % of control | dose: 4.0 mg/kg/injection, schedule: Q01DX010 (ip), vehicle: saline 180 % of control | dose: 8.0 mg/kg/injection, schedule: Q01DX001 (ip), vehicle: saline 150 % of control | dose: 60.0 mg/kg/injection, schedule: Q04DX003 (ip), vehicle: water 167 % of control | dose: 125.0 micrograms/kg/injection, schedule: Q01DX010 (ip), vehicle: saline 154 % of control | dose: 250.0 micrograms/kg/injection, schedule: Q01DX010 (ip), vehicle: saline 159 % of control
inactive: dose: 0.03 mg/kg/injection, schedule: Q01DX010 (ip), vehicle: saline 118 % of control | dose: 0.06 mg/kg/injection, schedule: Q01DX010 (ip), vehicle: saline 118 % of control | dose: 0.12 mg/kg/injection, schedule: Q01DX010 (ip), vehicle: saline 118 % of control | dose: 7.5 mg/kg/injection, schedule: Q04DX003 (ip), vehicle: water 104 % of control | dose: 8.0 mg/kg/injection, schedule: Q01DX010 (ip), vehicle: saline 90 % of control and 95 % of control | dose: 15.0 mg/kg/injection, schedule: Q04DX003 (ip), vehicle: water 119 % of control | dose: 16.0 mg/kg/injection, schedule: Q01DX001 (ip), vehicle: saline 90 % of control | dose: 240.0 mg/kg/injection, schedule: Q04DX003 (ip), vehicle: water 93 % of control

CC(C)(C)c1ccc(S(=O)[O][Sn]([CH3])([CH3])[O]S(=O)c2ccc(C(C)(C)C)cc2)cc1 (stereo unspecified)
inactive: dose: 12.5 mg/kg/injection, schedule: Q01DX001 (ip), vehicle: Klucel (hydroxypropylcellulose) (HPC) 110 % of control | dose: 25.0 mg/kg/injection, schedule: Q01DX001 (ip), vehicle: Klucel (hydroxypropylcellulose) (HPC) 113 % of control | dose: 50.0 mg/kg/injection, schedule: Q01DX001 (ip), vehicle: Klucel (hydroxypropylcellulose) (HPC) 116 % of control

Cn1c(=O)c2c(ncn2C)n(C)c1=O
inactive: dose: 50.0 mg/kg/injection, schedule: Q01DX010 (ip), vehicle: saline 100 % of control | dose: 100.0 mg/kg/injection, schedule: Q01DX010 (ip), vehicle: saline 100 % of control | dose: 200.0 mg/kg/injection, schedule: Q01DX010 (ip), vehicle: saline 104 % of control

Brc1ccc(-c2csc(Nc3nc(-c4ccc(Br)cc4)cs3)n2)cc1
inactive: [1] 90 % of control | [2] 90 % of control | [3] 95 % of control

OC(COc1ccccc1)CC(O)(C(F)(F)F)C(F)(F)F (stereo unspecified)
inactive: dose: 100.0 mg/kg/injection, schedule: Q01DX001 (ip), vehicle: saline with Tween-80 95 % of control | dose: 200.0 mg/kg/injection, schedule: Q01DX001 (ip), vehicle: saline with Tween-80 104 % of control | dose: 400.0 mg/kg/injection, schedule: Q01DX001 (ip), vehicle: saline with Tween-80 104 % of control

COc1ccc(C2(C#N)CCCC2)cc1
inactive: [4] 100 % of control | [5] 108 % of control | dose: 400.0 mg/kg/injection, schedule: Q01DX009 (ip), vehicle: saline with Tween-80 108 % of control

CC(=N\[O-])/C(C)=N/O.CC(=N\[O-])/C(C)=N/O.[Cl-].[Cl-].[Rh+3].c1ccncc1
inactive: dose: 75.0 mg/kg/injection, schedule: Q01DX009 (ip), vehicle: water 110 % of control | dose: 150.0 mg/kg/injection, schedule: Q01DX009 (ip), vehicle: water 110 % of control

CC1C/C=C2\CSC(NC(=O)/C3=C\N(C/C=C/C=C/C(O)CC(O)CC(=O)N3)C2=O)C(=O)O1 (stereo unspecified)
inactive: dose: 100.0 mg/kg/injection, schedule: Q01DX009 (ip), vehicle: Klucel (hydroxypropylcellulose) (HPC) 91 % of control | dose: 200.0 mg/kg/injection, schedule: Q01DX009 (ip), vehicle: Klucel (hydroxypropylcellulose) (HPC) 100 % of control | dose: 400.0 mg/kg/injection, schedule: Q01DX009 (ip), vehicle: Klucel (hydroxypropylcellulose) (HPC) 91 % of control

CC(C)COC(=O)c1ccccc1O
inactive: dose: 75.0 mg/kg/injection, schedule: Q01DX009 (ip), vehicle: Klucel (hydroxypropylcellulose) (HPC) 109 % of control | dose: 100.0 mg/kg/injection, schedule: Q04DX003 (ip), vehicle: Klucel (hydroxypropylcellulose) (HPC) 111 % of control | dose: 150.0 mg/kg/injection, schedule: Q01DX009 (ip), vehicle: Klucel (hydroxypropylcellulose) (HPC) 90 % of control | dose: 200.0 mg/kg/injection, schedule: Q04DX003 (ip), vehicle: Klucel (hydroxypropylcellulose) (HPC) 92 % of control | dose: 300.0 mg/kg/injection, schedule: Q01DX009 (ip), vehicle: Klucel (hydroxypropylcellulose) (HPC) 109 % of control

Clc1ccc2c(c1)nnn2OC1CCCC1
inactive: [6] 97 % of control | [4] 88 % of control | [5] 90 % of control

ClC1(Cl)Cc2ccccc21
inactive: [1] 109 % of control | dose: 266.0 mg/kg/injection, schedule: Q04DX003 (ip), vehicle: saline with Tween-80 108 % of control | [3] 108 % of control | dose: 600.0 mg/kg/injection, schedule: Q04DX003 (ip), vehicle: saline with Tween-80 120 % of control

O=C1C=C(N2CC2)c2ccccc2C1=O
inactive: dose: 2.5 mg/kg/injection, schedule: Q01DX009 (ip), vehicle: Klucel (hydroxypropylcellulose) (HPC) 100 % of control | dose: 5.0 mg/kg/injection, schedule: Q01DX009 (ip), vehicle: Klucel (hydroxypropylcellulose) (HPC) 90 % of control | dose: 10.0 mg/kg/injection, schedule: Q01DX009 (ip), vehicle: Klucel (hydroxypropylcellulose) (HPC) 104 % of control | dose: 11.0 mg/kg/injection, schedule: Q04DX003 (ip), vehicle: saline with Tween-80 109 % of control | dose: 16.5 mg/kg/injection, schedule: Q04DX003 (ip), vehicle: saline with Tween-80 104 % of control | dose: 20.0 mg/kg/injection, schedule: Q01DX009 (ip), vehicle: Klucel (hydroxypropylcellulose) (HPC) 104 % of control | dose: 25.0 mg/kg/injection, schedule: Q04DX003 (ip), vehicle: saline with Tween-80 118 % of control

N=c1c(C(N)=O)cnc2n1CCCCC2
inactive: dose: 100.0 mg/kg/injection, schedule: Q04DX003 (ip), vehicle: saline 109 % of control

CS(=O)CC(O)(c1ccccc1)c1ccco1 (stereo unspecified)
inactive: [6] 116 % of control | [4] 107 % of control | [5] 106 % of control

CCOC(=O)NCCCCCCNC(=O)OCC
inactive: [6] 95 % of control | [4] 100 % of control | [2] 90 % of control

O=C1OC(N2Cc3ccccc3C2=O)c2ccccc21 (stereo unspecified)
inactive: [6] 100 % of control | [4] 100 % of control | [5] 94 % of control

Cc1ccc(CNc2ccc(I)cc2)cc1
inactive: [1] 105 % of control | [2] 95 % of control | [3] 105 % of control

CN(C)C(=O)c1cccc(NC(=O)Oc2ccccc2)c1
inactive: [4] 90 % of control | [5] 95 % of control

CCCCNC(c1ccc(C=NC(CC)(CO)CO)cc1)C(Br)(Br)Br (stereo unspecified)
inactive: dose: 50.0 mg/kg/injection, schedule: Q04DX003 (ip), vehicle: other 100 % of control | dose: 100.0 mg/kg/injection, schedule: Q04DX003 (ip), vehicle: other 100 % of control | dose: 200.0 mg/kg/injection, schedule: Q04DX003 (ip), vehicle: other 104 % of control

N#CCCSC(=S)C1CCCC1=N (stereo unspecified)
inactive: [4] 112 % of control | [5] 102 % of control
